Experimental data published in PMC8148055 (Acta Pharmaceutica Sinica. B, 2020).

Target: sirtuin 6 (SIRT6) (Homo sapiens, UniProt Q8N6T7)
Assay: Fluor de Lys deacetylation assay
Assay type: biochemical

Chain of sirtuin 6 (SIRT6) (Q8N6T7 2-355): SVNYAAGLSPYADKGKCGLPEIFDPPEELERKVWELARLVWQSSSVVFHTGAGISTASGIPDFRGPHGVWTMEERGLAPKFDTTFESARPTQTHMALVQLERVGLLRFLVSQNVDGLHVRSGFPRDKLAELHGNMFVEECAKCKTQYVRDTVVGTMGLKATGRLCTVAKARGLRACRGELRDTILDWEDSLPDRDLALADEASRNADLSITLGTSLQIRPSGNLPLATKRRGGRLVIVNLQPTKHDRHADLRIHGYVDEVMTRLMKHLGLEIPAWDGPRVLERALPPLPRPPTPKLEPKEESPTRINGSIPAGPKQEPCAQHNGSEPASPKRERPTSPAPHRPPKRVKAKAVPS

MDL-801-E1
Fluor de Lys deacetylation assay (about 4-fold activation): ~ 4 fold
